Test results published in PubChem BioAssay AID1419 (Emory University Molecular Libraries Screening Center, 2008).
Active and inactive are the calls of the source. No rule for the calls is given here.

Assay: EBV protein-peptide binding inhibitors, dose response, biochemical, fluorescence polarization (AID 1419)
Conditions: cell-free protein-peptide binding, 2 h; for fold change: measured here: P channel fold over control, at 54 µM

| Structure (SMILES) | IC50 | fold change |
| --- | --- | --- |
| CC(C)Oc1ccc(NC(=O)CCC(=O)O)cc1 | > 54 µM (inactive) | 1.01 |
| O=C1C2C3C=CC(C3=C(c3ccccc3)c3ccccc3)C2C(=O)N1Cc1ccccc1 (configuration not stated) | > 54 µM (inactive) | 0.99 |
| Cc1nnc(NC(=O)CSc2cn(CCNC(=O)c3ccccc3)c3ccccc23)s1 | > 54 µM (inactive) | 1.05 |
| CCc1cccc2cc3c(N)c(C(=O)Nc4ccc(S(=O)(=O)N5CCCC5)cc4)sc3nc12 | 1.63 µM | 8.07 |
| NS(=O)(=O)c1ccc(NC(=O)c2ccc(-c3ccccc3)cc2)cc1 | 25.1 µM | 1.08 |
| Cc1ccc2cc3c(N)c4c(C)ccc(C)c4nc3nc2c1 | 0.92 µM | 6.77 |
| Cc1cc(/C=C2\C(=O)NC(=O)N(c3cccc(Br)c3)C2=O)c(C)n1C | 7.34 µM | 9.43 |
| CC(C)c1ccc(/C=C/C(=O)n2nnc3ccccc32)cc1 | > 54 µM (inactive) | 0.857 |
| N=C1S/C(=C\c2ccc(-c3cccc(Cl)c3)o2)C(=O)N1c1nccs1 | 5.78 µM | 2 |
| CCOC(=O)/C(=C/c1ccc(N2CCC(c3ccccc3)=N2)cc1)C(C)=O | 3.78 µM | 11.8 |
| COc1ccc2nc(N3CCCCC3)c(C#N)cc2c1 | 4.61 µM | 3.52 |
| Cc1noc(/C=C/c2ccc(-c3ccccc3Cl)o2)c1[N+](=O)[O-] | 13.2 µM | 7.6 |
| NC(=S)n1[nH]c(-c2ccc([N+](=O)[O-])cc2)c(N=Nc2cccc(Cl)c2)c1=O | 3.74 µM | 1.19 |
| Cc1cc(C)c2cc3c(ccn3C3OC[C@H](O)[C@H](O)[C@H]3O)cc2n1 (some centres not stated) | 3.78 µM | 2.96 |
| c1ccc(-c2ccnc3nc(N4CCN(c5ccccc5)CC4)nn23)cc1 | > 54 µM (inactive) | 0.987 |
| O=C(N=Nc1ccc(NOC(=O)c2ccccc2Br)cc1)c1ccccc1O | > 54 µM (inactive) | 0.957 |
| O=C(Nc1cccc([N+](=O)[O-])c1)c1cnccn1 | > 54 µM (inactive) | 1.09 |
| CN1CCN(c2ccc([N+](=O)[O-])c3no[n+]([O-])c23)CC1 | 1.32 µM | 11.6 |
| Cc1cc2c(cc1C)NC(c1c(C)n(C)n(-c3ccccc3)c1=O)C1=C(CC(C)(C)CC1=O)N2 (configuration not stated) | 3.25 µM | 3.49 |
| CCCCCCn1c(=O)[nH]c2nc3cc(N)ccc3nc2c1=O | < 0.42 µM | 85.8 |
| Cc1c(N=C2N=C(NC(=O)c3ccc(F)cc3)c3ccccc32)c(=O)n(-c2ccccc2)n1C | 6.56 µM | 6.09 |

| Structure (SMILES) | IC50 | fold change |
| --- | --- | --- |
| O=C(CSc1nc(-c2ccccc2)nc2c1Cc1ccccc1O2)Nc1ccc(C(=O)O)cc1 | 1.64 µM | 1.12 |
| COc1cc(C2C(C#N)=C(N)OC3=C2C(=O)CC(C)(C)C3)c([N+](=O)[O-])cc1OC (configuration not stated) | 6.61 µM | 1.98 |
| CC1(C)CC(=O)C2=C(C1)OC(N)=C(C#N)[C@@H]2c1ccccc1[N+](=O)[O-] | 2.27 µM | 4.78 |
| COc1ccc(-n2c(N)c(C#N)c3ccc([N+](=O)[O-])cc3c2=O)cc1 | > 54 µM (inactive) | 1.45 |
| CC1CC=C2C(C#N)=C(N)C(C#N)(C#N)C(c3cccs3)C2C1 (configuration not stated) | 12.8 µM | 2.49 |
| CN(C)c1ccc(Nc2c3c4c(cccc4n(C)c2=O)C(=O)c2ccccc2-3)cc1 | > 54 µM (inactive) | 1.1 |
| Cc1ccc(CSc2nnc3c(n2)OC2(Nc4ccccc4-3)C(=O)Nc3ccc(F)cc32)cc1 (configuration not stated) | 6.29 µM | 16.9 |
| CCOC(=O)/C(C#N)=C/c1cc2ccccc2nc1N1CCCCC1 | 27.1 µM | 2.2 |
| N=C1/C(=C\c2ccc(-c3cccc(C(=O)O)c3)o2)C(=O)N=C2SC=C(c3ccccc3)N12 | 4.25 µM | 1.23 |
| CCN(CC)CCN1C(=O)c2cccc3cc(N)cc(c23)C1=O | 3.39 µM | 3.91 |
| N=c1oc2cc(O)ccc2cc1C(=O)Nc1nc2ccccc2s1 | 13 µM | 2.65 |
| CC(=O)Oc1ccc2c(c1)Oc1cc(OC(C)=O)ccc1C21OC(=O)c2ccccc21 | < 0.42 µM | 23.1 |
| CCOc1ccc(-c2nn(-c3ccccc3)cc2/C=C2\SC(=S)N(C3CCS(=O)(=O)C3)C2=O)cc1 (configuration not stated) | 2.12 µM | 10.9 |
| CCOC(=O)c1oc2cc(OCC(=O)OC)ccc2c(=O)c1-c1ccc(OC)c(OC)c1 | > 54 µM (inactive) | 0.99 |
| CC1CCc2cccc3c2N1c1cc(C#N)c(C#N)cc1O3 (configuration not stated) | 6.6 µM | 8.38 |
| COc1ccc(-c2nnc(Nc3ccc(S(=O)(=O)Nc4nccs4)cc3)c3ccccc23)cc1 | > 54 µM (inactive) | 1.09 |
| COc1ccc2nc(N3C(=O)/C(=C/c4ccc(Cl)cc4)NC3=S)sc2c1 | > 54 µM (inactive) | 1.37 |
| CC(=O)NC1C(OCCOc2ccc(Cl)cc2Cl)OC(COC(C)=O)C(OC(C)=O)C1OC(C)=O (configuration not stated) | > 54 µM (inactive) | 1.04 |
| N#Cc1c(C#N)c(O)c2ccccc2c1O | 4.02 µM | 3.34 |
| COc1cc(/C=C2\SC(=O)N(c3cccc(Cl)c3)C2=O)cc([N+](=O)[O-])c1O | 3.51 µM | 1.04 |
| N#CC(C#N)=Cc1ccc(-c2ccccc2F)o1 | 5.06 µM | 18.8 |

| Structure (SMILES) | IC50 | fold change |
| --- | --- | --- |
| CC(=O)N/N=C/c1cc(C(C)(C)C)cc(/C=N/NC(C)=O)c1O | 4.05 µM | 3.13 |
| CCCc1cc(=O)n(-c2nc3ccccc3s2)[nH]1 | > 54 µM (inactive) | 0.94 |
| Nc1c(O)ccc2c1C(=O)c1ccccc1C2=O | 4.09 µM | 2.59 |
| O=S(=O)([N-]c1nc2ccccc2nc1-[n+]1ccc(-c2ccncc2)cc1)c1ccccc1 | 9.13 µM | 3.54 |
| O=C(C1=C(O)C(=O)N(c2ncccn2)C1c1cccs1)c1ccco1 (configuration not stated) | 5.21 µM | 1.87 |
| CCN(CC)c1ccc(/C=C/C(=O)c2ccc(Br)cc2)cc1 | 2.64 µM | 31.1 |
| CN1/C(=C\C=C\C2=[N+](C)c3ccc4ccccc4c3C2(C)C)C(C)(C)c2ccccc21 | 3.78 µM | 4.43 |
| S=C(Nc1ccc2nc(-c3ccccn3)c(-c3ccccn3)nc2c1)N1CCCCC1 | > 54 µM (inactive) | 1.3 |
| Cn1cccc1/C=C1/C(=O)NC(=O)N(Cc2ccc(F)cc2)C1=O | > 54 µM (inactive) | 1.04 |
| O=C(O)COc1ccc(/C=N/NC(=O)c2ccc(-c3csc(Nc4ccc(Cl)cc4)n3)cc2)cc1 | 14.7 µM | 1.13 |
| CCCN1C(=O)/C(=C/C=C2\N(CC)c3ccccc3C2(C)C)SC1=S | 0.95 µM | 12 |
| NC(=O)c1c(NC(=O)CSc2nnc(-c3ccco3)n2-c2ccccc2)sc2c1CCC2 | 46 µM (inactive) | 0.977 |
| Cc1ccc([N+](=O)[O-])cc1-c1ccc(/C=C(\C#N)c2[nH]nc(N)c2C#N)o1 | > 54 µM (inactive) | 0.727 |
| O=[N+]([O-])c1ccc(-c2cn3nc(-c4ccccc4)c(-c4ccccc4)nc3n2)cc1 | 3.58 µM | 21.1 |
| CCOC(=O)c1cc2n(c1/N=C/N(C)C)-c1ccccc1C2=O | < 0.42 µM | 42.3 |
| Cn1cc(/C=C2\SC(=S)N(NC(=O)c3ccccc3)C2=O)c2ccccc21 | > 54 µM (inactive) | 5.3 |
| O=C(OCCN1C(=O)c2cccc3c(N4CCOCC4)ccc(c23)C1=O)c1ccc(Cl)cc1 | 4.07 µM | 53.3 |
| CCn1c(O)c(C=Nc2ccc(N3CCOCC3)cc2)c(=O)n(CC)c1=S | 4.91 µM | 36.6 |
| O=C(Nc1nccs1)C(c1ccccc1)N1CCCC1 (configuration not stated) | > 54 µM (inactive) | 1.04 |
| CN1CC=C2C(C#N)=C(N)C(C#N)(C#N)C(c3cccc(Cl)c3Cl)C2C1 (configuration not stated) | 1.44 µM | 7.33 |
| CCOC(=O)Cn1c2ccc(OC)cc2c2nc3ccccc3nc21 | 0.79 µM | 6.57 |

| Structure (SMILES) | IC50 | fold change |
| --- | --- | --- |
| CCOc1ccc(N=C2NC(=O)S/C2=C\c2ccc(N(C)C)cc2)cc1 | 5.8 µM | 8.81 |
| CN1CCC2(CC1)C1CN(C)CC=C1C(C#N)=C(N)C2(C#N)C#N (configuration not stated) | 2.49 µM | 7.69 |
| O=C(c1ccccc1)c1ccc2c(c1)OCCCO2 | > 54 µM (inactive) | 1.02 |
| CCOC(=O)c1ccc2c(c1)C1C=CCC1C(C(=O)O)N2 (configuration not stated) | 4.11 µM | 1.2 |
| COc1ccc(-c2c(C#N)c(N)nc3sc(C(=O)c4ccc(C)cc4)c(N)c23)cc1 | 23.5 µM | 5.33 |
| O=c1oc2ccccc2nc1/C=C(\O)c1ccc(Br)cc1 | > 54 µM (inactive) | 6.17 |
| O=C1c2cccc3c([N+](=O)[O-])ccc(c23)C(=O)N1CC1CCCO1 (configuration not stated) | 13.8 µM | 2.37 |
| COCCOC(=O)c1sc(=S)n(CCOC)c1N | 3.85 µM | 2.45 |
| N=C1CCC(=N)c2c1c(O)c1ccccc1c2O | < 0.42 µM | 41.5 |
| CC1=CC(=C(C#N)c2nc3ccccc3s2)C=C(C)N1c1ccc(F)cc1F | 3.98 µM | 11.2 |
| Cc1ccc(C(=O)Nn2c(O)c(C=C3N=c4ccccc4=N3)sc2=S)cc1 | > 54 µM (inactive) | 1.04 |
| N#CC1=C(N)Oc2ccc3ccc(O)cc3c2C1c1ccsc1 (configuration not stated) | 1.97 µM | 2.08 |
| CC(C)N(C(=O)C[n+]1ccc(/C=N/O)cc1)C(C)C | > 54 µM (inactive) | 1.05 |
| COc1ccc(C2CC(c3ccccc3)n3nc(NC(=O)c4cccs4)nc3N2)cc1 (configuration not stated) | > 54 µM (inactive) | 0.943 |
| CC1C2C(C)N(C)C(=O)N(C)C2N(C)C(=O)N1C (configuration not stated) | 8.68 µM | 8.94 |
| Oc1oc(-c2ccccc2)nc1C=Nc1cccc2ccccc12 | 7.47 µM | 3.16 |
| CN(C(=O)COC(=O)c1cc(-c2ccco2)nc2ccccc12)C1CCS(=O)(=O)C1 (configuration not stated) | 2.91 µM | 0.9 |
| NC(=O)c1cc2ccc(O)cc2oc1=NCc1ccccc1 | < 0.42 µM | 34.3 |
